Laboratory results as given in BindingDB's records for doi:10.1021/jm00069a011 (Boehringer Mannheim, 1993).

Biological target: T1, Gag-Pol polyprotein [588-1027]/[588-1147] (Human immunodeficiency virus 1, UniProt P04585)
T1 construct: 588-1027; 588-1147
Experiment: HIV-1 RT Assay

SMILES	IC50	IC50 (pH 7.7, 37 °C)
O=C1c2ccccc2C2(c3ccccc3)NCCN12 (stereo not drawn) [9b-phenyl-1H,2H,3H,5H,9bH-imidazolidino[2,1-a]isoindol-5-one]	> 100 µM	
O=C1c2ccccc2C2(c3ccccc3)NCCCN12 (stereo not drawn) [10b-phenyl-1H,2H,3H,4H,6H,10bH-pyrimido[2,1-a]isoindol-6-one]	> 10 µM	
O=C1c2cnccc2C2(c3ccccc3)SCCN12 (stereo not drawn) [2-phenyl-3-thia-6,10-diazatricyclo[6.4.0.0^{2,6}]dodeca-1(12),8,10-trien-7-one]	> 100 µM	
C[C@@H]1CN2C(=O)c3ccccc3[C@@]2(c2ccccc2)O1 [(2R,9bR)-2-methyl-9b-phenyl-2H,3H,5H,9bH-isoindolo[1,2-b][1,3]oxazol-5-one]	37.6 µM	
O=C1c2c(ccc3ccccc23)C2(c3ccccc3)SCCN12 (stereo not drawn) [11-phenyl-12-thia-15-azatetracyclo[8.6.0.0^{2,7}.0^{11,15}]hexadeca-1,3,5,7,9-pentaen-16-one]	> 100 µM	
O=C(O)[C@H]1CSC2(c3ccccc3)c3ccccc3C(=O)N12 (stereo partly drawn) [(3S)-5-oxo-9b-phenyl-2H,3H,5H,9bH-isoindolo[1,2-b][1,3]thiazole-3-carboxylic acid]	> 100 µM	
O=C1c2ccccc2C2(c3ccncc3)SCCN12 (stereo not drawn) [9b-(pyridin-4-yl)-2H,3H,5H,9bH-isoindolo[1,2-b][1,3]thiazol-5-one]	> 30 µM	
O=C1c2ccccc2C2(c3ccccc3)Sc3ccccc3N12 (stereo not drawn) [9-phenyl-8-thia-1-azatetracyclo[7.7.0.0^{2,7}.0^{10,15}]hexadeca-2,4,6,10,12,14-hexaen-16-one]	40 µM	
O=C1c2ccccc2C2(c3ccccc3)N1CCS2(=O)=O (stereo not drawn) [9b-phenyl-2H,3H,5H,9bH-1,4000000-isoindolo[1,2-b][1,3]thiazole-1,1,5-trione]	> 10 µM	
O=C1c2ncccc2C2(c3ccccc3)SCCN12 (stereo not drawn) [2-phenyl-3-thia-6,9-diazatricyclo[6.4.0.0^{2,6}]dodeca-1(12),8,10-trien-7-one]	> 100 µM	
O=C1c2ccccc2C2(c3ccc[nH]3)SCCN12 (stereo not drawn) [9b-(1H-pyrrol-2-yl)-2H,3H,5H,9bH-isoindolo[1,2-b][1,3]thiazol-5-one]		> 100 µM
COc1ccc(C23SCCN2C(=O)c2ccccc23)cc1 (stereo not drawn) [9b-(4-methoxyphenyl)-2H,3H,5H,9bH-isoindolo[1,2-b][1,3]thiazol-5-one]		> 30 µM
C[C@H]1CN2C(=O)c3ccccc3[C@@]2(c2ccccc2)O1 [(2S,9bR)-2-methyl-9b-phenyl-2H,3H,5H,9bH-isoindolo[1,2-b][1,3]oxazol-5-one]	> 100 µM	
